Data as given in the supplement of paper PMC8960247.
Counter-ions that a name gives are not always drawn. ± gives the standard error.

What was measured:
621-102 (TSC2-deficient) = assay: relative viability vs DMSO; higher = less cytotoxic; details: serum: 10% FBS, 72 h
621-103 (TSC2-rescued) = assay: as above; details: serum: 10% FBS, 72 h
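Also: immortalized renal angiomyolipoma cells stably carrying empty vector or TSC2, dosed in 384-well plates in DMEM, viability normalized to vehicle-treated wells within each plate.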

Structure (SMILES)	relative viability (621-102 (TSC2-deficient); 0.0001 µM) [%]	relative viability (621-102 (TSC2-deficient); 0.001 µM) [%]	relative viability (621-102 (TSC2-deficient); 0.01 µM) [%]	relative viability (621-102 (TSC2-deficient); 0.1 µM) [%]	relative viability (621-102 (TSC2-deficient); 1 µM) [%]	relative viability (621-102 (TSC2-deficient); 10 µM) [%]	relative viability (621-103 (TSC2-rescued); 0.0001 µM) [%]	relative viability (621-103 (TSC2-rescued); 0.001 µM) [%]	relative viability (621-103 (TSC2-rescued); 0.01 µM) [%]	relative viability (621-103 (TSC2-rescued); 0.1 µM) [%]	relative viability (621-103 (TSC2-rescued); 1 µM) [%]	relative viability (621-103 (TSC2-rescued); 10 µM) [%]
CNC(C)C1CCC(N)C(OC2C(N)CC(N)C(OC3OCC(C)(O)C(NC)C3O)C2O)O1 (stereo unspecified) [Gentamycin sulfate (Gentacycol)]	104 ± 4.4	109 ± 2.3	113 ± 2.6	109 ± 4.9	106.5 ± 0.17	91.9 ± 1.7	99.8 ± 1.9	89.3 ± 9.2	89.5 ± 1.6	94.13 ± 0.19	88.3 ± 7.1	96.9 ± 3.5
CN1C2CCCC1CC(NC(=O)c1nn(C)c3ccccc13)C2 (stereo unspecified) [Granisetron HCl]	101 ± 3.8	99.5 ± 1	94.6 ± 1.2	99.56 ± 0.18	102.3 ± 0.95	95.1 ± 1.5	105.6 ± 0.89	102 ± 1.7	106.4 ± 0.23	106 ± 5.2	103 ± 4.2	102 ± 3
CCS(=O)(=O)Nc1ccc2c(c1)/C(=C(/Nc1ccc(CN3CCCCC3)cc1)c1ccccc1)C(=O)N2 [Hesperadin]	105 ± 6.1	95.5 ± 3.5	77.4 ± 2.1	85.2 ± 1.8	59.2 ± 1.9	2.25 ± 0.32	100 ± 3.2	93.1 ± 1.2	97.46 ± 0.18	85.6 ± 0.14	42.75 ± 0.27	3.8 ± 0.2
CC[C@H](c1ccc(O)cc1)[C@@H](CC)c1ccc(O)cc1 [Hexestrol (Bibenzyl)]	105 ± 2.8	121 ± 3.7	108 ± 5.3	100 ± 6.5	113 ± 2.7	99.9 ± 5.4	89.4 ± 5.1	89.3 ± 4	90.4 ± 1	90 ± 2.3	95 ± 2.3	95.35 ± 0.45
O=C1[C@H](Cc2ccc(O)cc2)N2C(=O)CCN(C(=O)NCc3ccccc3)[C@H]2CN1Cc1cccc2ccccc12 [ICG-001]	116 ± 2.7	105.3 ± 0.41	106 ± 1.1	102 ± 4.2	98.9 ± 2.3	52.9 ± 0.89	105 ± 2.9	109 ± 7.1	108.7 ± 0.74	103 ± 1.3	109 ± 1.5	37.8 ± 0.69
CCN(CC)Cc1ccc2cc(COC(=O)Nc3ccc(C(=O)NO)cc3)ccc2c1 [ITF2357]	107 ± 6.2	101 ± 3.4	95.94 ± 0.22	76.42 ± 0.1	57.1 ± 3.5	25.4 ± 0.77	98.21 ± 0.79	95.5 ± 1.7	96 ± 2	67.63 ± 0.33	26.9 ± 0.91	3.1 ± 0.064
CC(C)Cc1ccc(C(C)C(=O)O)cc1 (stereo unspecified) [Ibuprofen]	102.6 ± 0.15	109 ± 5.4	114 ± 1.2	112.4 ± 0.85	106 ± 1.3	104 ± 3.3	105.8 ± 0.48	99.2 ± 0.35	101 ± 0.81	99.61 ± 0.82	98.25 ± 0.82	98.82 ± 0.41
COc1ccc(-c2oc3c(CC=C(C)C)c(O[C@@H]4O[C@H](CO)[C@@H](O)[C@H](O)[C@H]4O)cc(O)c3c(=O)c2O[C@@H]2O[C@@H](C)[C@H](O)[C@@H](O)[C@H]2O)cc1 [Icariin]	93.6 ± 10	92.7 ± 2.9	89.44 ± 0.27	102 ± 5.1	87.9 ± 11	80.99 ± 0.32	116 ± 1.2	105 ± 3.3	109 ± 1.2	101 ± 1.4	98.3 ± 5.3	116 ± 3.7
Cc1ccc(NC(=O)c2ccc(CN3CCN(C)CC3)cc2)cc1Nc1nccc(-c2cccnc2)n1 [Imatinib (STI571)]	85.09 ± 0.54	107 ± 2.1	99 ± 3.4	109 ± 3.3	108 ± 2.7	95.35 ± 0.94	94.6 ± 4.2	97.664 ± 0.066	101 ± 0.77	101 ± 2	94.4 ± 3.7	96.9 ± 4.7
Cc1ccc(NC(=O)c2ccc(CN3CCN(C)CC3)cc2)cc1Nc1nccc(-c2cccnc2)n1 [Imatinib Mesylate]	99 ± 2.9	113 ± 3.7	108 ± 3.2	111 ± 3.6	107 ± 3.1	94.78 ± 0.7	95.2 ± 5.4	90.4 ± 3.4	101.6 ± 0.44	97.9 ± 1.8	98.3 ± 4.3	94.8 ± 4.8
CCCCC1=NC2(CCCC2)C(=O)N1Cc1ccc(-c2ccccc2-c2nnn[nH]2)cc1 [Irbesartan (Avapro)]	103.3 ± 0.78	100.8 ± 0.93	105 ± 3.8	101 ± 4.9	110 ± 1.1	104 ± 2.6	102 ± 1.3	96.3 ± 4.2	95.6 ± 3.6	102 ± 1.9	103 ± 4	107.2 ± 0.91
CCc1c2c(nc3ccc(OC(=O)N4CCC(N5CCCCC5)CC4)cc13)-c1cc3c(c(=O)n1C2)COC(=O)[C@]3(O)CC [Irinotecan HCl Trihydrate]	94 ± 3.9	98.4 ± 3	97.8 ± 1.5	108 ± 4.1	99.4 ± 3	63.351 ± 0.053	107 ± 5.2	107 ± 3.3	105 ± 1.8	101 ± 5.9	99.3 ± 1.9	57.5 ± 2.7
CCc1c2c(nc3ccc(OC(=O)N4CCC(N5CCCCC5)CC4)cc13)-c1cc3c(c(=O)n1C2)COC(=O)[C@]3(O)CC [Irinotecan]	105 ± 1.2	106 ± 3.8	93.9 ± 2.1	108 ± 2.8	82 ± 0.64	33.7 ± 0.69	104 ± 4.3	98.62 ± 0.9	103 ± 1.1	99.19 ± 0.57	84.6 ± 1.1	30.2 ± 0.71
Clc1ccc(C(Cn2ccnc2)OCc2c(Cl)cccc2Cl)c(Cl)c1 (stereo unspecified) [Isoconazole]	104 ± 1.2	107 ± 2.4	86.81 ± 0.67	108.4 ± 0.37	107 ± 1.4	100 ± 4.3	104 ± 2.4	109 ± 4	105 ± 1	103.2 ± 0.24	108 ± 1.4	95.32 ± 0.49
CC(C)NCC(O)c1ccc(O)c(O)c1 (stereo unspecified) [Isoprenaline HCl]	103 ± 4.7	99.5 ± 2.4	102 ± 1.1	95.5 ± 4.2	94.6 ± 2.4	98.26 ± 0.6	95.6 ± 2	88 ± 5.3	91.5 ± 1.7	94.2 ± 6.9	91.3 ± 2.6	83.3 ± 1.6
Cc1ccc(C(=O)N(CCCN)[C@@H](c2nc3cc(Cl)ccc3c(=O)n2Cc2ccccc2)C(C)C)cc1 [Ispinesibmesilate]	95.1 ± 1.5	81.2 ± 1.3	77.62 ± 0.57	63.9 ± 3	73 ± 1.6	1.22 ± 0.096	68.8 ± 3	51.76 ± 0.14	55.41 ± 0.1	49.4 ± 1.4	53.36 ± 0.26	1.19 ± 0.11
CCC(C)n1ncn(-c2ccc(N3CCN(c4ccc(OCC5COC(Cn6cncn6)(c6ccc(Cl)cc6Cl)O5)cc4)CC3)cc2)c1=O (stereo unspecified) [Itraconazole (Sporanox)]	108 ± 2.3	115 ± 3.1	102 ± 1.8	112 ± 3.4	60 ± 7.2	7.53 ± 0.32	98.8 ± 5.2	86.8 ± 1.1	95.59 ± 0.8	97.5 ± 6.4	70.71 ± 0.48	15.44 ± 0.12
CCCNC(=O)Nc1ccc(Oc2ncnc3cc(OC)c(OC)cc23)cc1Cl [KRN 633]	84.4 ± 4.7	119 ± 2.7	104 ± 12	94.6 ± 3.8	100 ± 2.7	102 ± 1.3	85.6 ± 4.4	95.9 ± 4.2	100 ± 3	96.9 ± 1.9	90.3 ± 3.6	99.8 ± 3.4
